Results published in patent US7172879B2, “Detection of sphingosine kinase activity and sphingosine kinase agonist or antagonist activity” (Johnson & Johnson Pharmaceutical Research & Development LLP, priority 1997, dated 2007).
One block for each compound: values may come before it.

Assays:
Format in all cases: cell-based, human
[1] = test system: sphingomyelin; test: Sphingomyelin hydrolysis in labelled HUVECs; conditions: within 30 min of TNFα stimulation
Method: (§1) HUVECs were labelled with [^3H]sphingomyelin was measured at the desired time point of TNFα treatment. The unlabelled cells were treated with HDL and/or TNFα as indicated, cells were lysed to measure ceramide levels and sphingosine kinase activity, respectively. The cells were permeabilized to measure the production of Sph-1-P in vivo.
(§2) To measure sphingomyelin, the HUVECs were labeled with [^3H]serine (5 μCi/ml) for 48 h and preincubated with or without HDL for another 6 h. The cells were then washed three times and incubated for additional 2 h in the presence or absence of HDL. […] Sphingomyelin spots were visualized by fluorography, quantitated by scintillation spectrometry, and normalized by radioactivity recovered in total cellular lipids. […] To measure ceramide levels, cellular ceramide was extracted and quantified with the diacylglycerol kinase reaction (Kolesnick, 1991; Hannun & Bell, 1993). Sphingosine kinase activity was measured in vitro as previously described with some modification (Mattie et al., 1994; Ghosh et al., 1994; Choi et al., 1996). […] Sphingosine kinase activity was measured by incubating the supernatant with […] sphingosine-BSA complex and [γ^32P]ATP (1 mM, 5 μCi/ml) for 15 min at 37° C. […] Radioactivity of the spot corresponding to Sph-1-P was quantified using Phosphoimager system. […]

[2] = test system: sphingosine kinase; test: Sphingosine kinase activity in cytosolic fractions of treated HUVECs
Method: as §1, §2

[3] = test system: ERK; test: ERK activity in HUVECs, immunoprecipitation and MBP substrate; conditions: for stimulation of ERK activities: 30 min treatment
Method: After the cells were treated with an agent for 30 min, ERK activities were assayed with […] basic protein (MBP) as substrate after immunoprecipitation with antibodies against p42/p44^MAPK (Berra et al. 1995; Li et al., 1996; Lee et al., 1997). The kinase reaction products were separated on 10% SDS-polyacrylamide gels. Bar graph depicting ERK activities were quantified by Phosphoimager. NF-κB binding activity was measured by electrophoretic mobility shift assay after 30 min treatment as indicated.

[4] = test system: ceramide; test: Cellular ceramide levels in HUVECs, diacylglycerol kinase reaction; conditions: peak at 30 min after TNFα treatment
Method: as §1, §2

[5] = test system: E-selectin; test: Cell-surface expression of E-selectin by HUVECs, flow cytometry
Method: (§3) Confluent monolayers of HUVECs were preincubated with or without HDL that was isolated as the fraction of density 1.13˜1.21 g/ml from human plasma at a concentration of 1 mg/ml of apoA-1. After 16-h preincubation, the cells were treated with TNFα (100 U/ml). Following 4-h treatment of TNFα, the cell-surface expression of VCAM-1 and E-selectin was measured by using flow cytometry.
(§4) HUVECs were treated with an increasing concentration of C2-ceramide with or without TNF α(100 U/ml), or an increasing concentration of Sph-1-P for 4 h. The cell-surface expression of VCAM-1 or E-selectin was measured by flow cytometry. Effect of sphingosine kinase inhibitor (DMS) on the expression of VCAM-1 and E-selectin. The cells were treated with a vehicle (Nil), DMS (5 μM), Sph-1-P (5 μM), C2-ceramide (10 μM) or TNFα (100 U/ml) for 4 h, then measure VCAM-1 or E-selectin expression. Effect of agents on E-selectin mRNA levels and the comparison between the effect of HDL and DMS. After the indicated treatment for 4 h, E-selectin mRNA levels were measured by Northern blotting assay. Results shown in (D) are representative of three similar experiments.

[6] = test system: VCAM-1; test: Cell-surface expression of VCAM-1 by HUVECs, flow cytometry
Method: as §3, §4

[7] = test system: E-selectin mRNA; test: E-selectin mRNA levels in HUVECs, Northern blotting; conditions: 4 h treatment
Method: as §4
Total RNA was prepared from HUVECs that was treated with the indicated agents for 4 h. Equal aliquots of total RNA (12 μg) were electrophoresed in a 1% formaldehyde gel and transferred to nylon membrane. The blots were hybridized with α^=P-labeled E-selection cDNA probe. The mRNA levels of E-selectin were quantified by Phosphoimager and normalised to radiolabeled GAPDH probe.

[8] = test system: NF-κB; test: NF-κB binding activity in HUVEC nuclear extracts, electrophoretic mobility shift assay; conditions: HUVECs, 30 min treatment
Method: After the cells were treated with an agent for 30 min, ERK activities were assayed with mycline basic protein (MBP) as substrate after immunoprecipitation with antibodies against p42/p44^MAPK (Berra et al. 1995; Li et al., 1996; Lee et al., 1997). The kinase reaction products were separated on 10% SDS-polyacrylamide gels. Bar graph depicting ERK activities were quantified by Phosphoimager. NF-κB binding activity was measured by electrophoretic mobility shift assay after 30 min treatment as indicated. The specific NF-κB binding complexes were identified by the super-shift gel assay with anti-p50 and anti-p65 antibodies and by competition analyses with the addition of a 50-fold molar excess of unlabelled NF-κB oligonucleotides.
To measure the NF-κB binding activity, electrophoretic mobility-shift assays were performed. Nuclear extracts were prepared from HUVECs treated for 30 min with vehicle or the indicated agents. The double-stranded oligonucleotides used as a probe in these experiements included 5′-[…]-3′ (SEQ ID NO: 1) which contains a consensus NF-κB binding site in E-selection promoter that is underlined. Gel mobility shift of a consensus NF-κB oligonucleotide was performed by incubating ^32P-labelled NF-κB probe with […] of nuclear proteins. The Sph-1-P induced formation of NF-κB specific complexes were similar us that induced by TNFα. […]

[9] = test system: Sph-1-P formation; test: Sph-1-P formation in permeabilized HUVECs; conditions: endothelial cells; same concentration of DMS (5 μM)
Method: as §1, §2

[10] = at 51 μM, compared with 100 U/ml TNF-α
[11] = HUVECs, TNFα 100 U/ml, 4 h, flow cytometry

increase of cellular ceramide levels [4]: approximately 2 fold
Compound: TNFα
cellular sphingomyelin content, % of control [1]: 40%
cytosolic sphingosine kinase activity, maximum, % of basal ([2]; HUVECs, within 5 min, p<0.01): 165±13%
stimulation of ERK activities [3]: approximately equipotent

induction of nuclear NF-κB accumulation [8]: significant nuclear NF-κB accumulation
Compound: CCCCCCCCCCCCC/C=C/[C@@H](O)[C@@H](N)COP(=O)(O)O [Sph-1-P, sphingosine-1-phosphate]
induction of E-selectin, level reached [5, 10]: approximately equivalent to 100 U/ml TNF-α
induction of VCAM-1, level reached [6, 10]: approximately equivalent to 100 U/ml TNF-α
induction of E-selectin mRNA [7]: induction of E-selectin mRNA
stimulation of ERK activities [3]: approximately equipotent

Compound: N,N-dimethylsphingosine [DMS]
effect on Sph-1-P induced adhesion protein expression (E-selectin) ([5]; HUVECs, Sph-1-P 5 μM, 4 h): did not prevent
inhibition of sphingosine kinase activity induced either by TNF-α or PMA ([2]; endothelial cells, same concentration of DMS (5 μM)): > 90%
effect on Sph-1-P induced adhesion protein expression (VCAM-1) ([6]; HUVECs, Sph-1-P 5 μM, 4 h): did not prevent
inhibition of Sph-1-P formation induced either by TNF-α or PMA [9]: > 90%
inhibition of Sph-1-P induced activation of NF-κB [8]: did not inhibit
inhibition of TNFα-activated ERK ([3]; 30 min, p<0.02): 50%

Compound: CCCCCCCCCCCCC/C=C/[C@@H](O)[C@H](CO)NC(C)=O [C2-ceramide]
inhibition of TNFα-induced expression of E-selectin [5, 11]: > 60%
inhibition of TNFα-induced expression of VCAM-1 [6, 11]: > 60%
stimulation of ERK activities [3]: did not
